Experimental data from patent US20090048310A1, “AGENT FOR PREVENTION/TREATMENT OF DISEASE CAUSED BY ACYCLOVIR-RESISTANT HERPESVIRUS” (ASTELLAS PHARMA INC., priority 2005, published 2009).

Tests used:
HSV-1 strain WT-51 = experiment: Cutaneous HSV-1 infection mouse model; format: in vivo, HR-1 hairless mouse; details: oral, 10 mg/kg twice a day for 5 days, scores for 17 days
Experimental: Using a cutaneous HSV-1 infection mouse model prepared in reference to the method of H. Machida et al. (Antiviral Res., 1992, 17, 133-143), the in vivo […] of the compounds of the present invention was tested using an animal model. The skin of each HR-1 hairless mouse [female, 7 weeks of age] was scratched lengthwise and breadthwise several times using a needle and a virus suspension (HSV-1 strain WT-51, 1.5×10^4 PFU/15 μl) was dropped to the scarified region for infection, while anesthetized with diethyl ether.
Tested compounds were administered orally as a methyl cellulose suspension, except for compounds marked with asterisk which were dissolved in 20% Cremophor EL (Nacalai Tesque)/20% polyethylene glycol (PEG) 400/60% H2O solution, starting at 3 hours after the infection, and then at a dose of 10 mg/kg twice a day for 5 days. The symptom of the skin lesion caused by HSV-1 infection were classified in the following scores for 17 days:
Score 0: no signs of infection.
Score 1: localized, barely perceptible small vesicles.
Score 2: slight vesicle spread.
Score 3: large patches of vesicles formed.
Score 4: zosteriform vesicles.
Score 5: large patches of ulcers formed.
Score 6: zosteriform with severe large ulcers.
Score 7: hind limb paralysis or death.
The AUC value was calculated from each group's mean disease score, and the disease inhibitory rate of the group administered with each test compound to the placebo group was calculated using the AUC.

ACV-resistant HSV-1 = ACV-resistant HSV-1 infection lethal model in nude mice; format: in vivo, nude mouse (CD-1(ICR)-nu/nu); details: 100 mg/kg oral twice a day for 15 days
Experimental: ACV-resistant HSV-1 (3×10^6 pfu) was inoculated into the peritoneal cavity of each nude mouse (CD-1(ICR)-nu/nu, […], female, Charles River Japan) to cause infection with the virus. Each compound to be tested was made into a methyl cellulose suspension and orally administered at a dose of 100 mg/kg, twice a day for 15 days starting 1 hour after the infection (from 0 to 14 days after the infection).
During 17 days after the infection, death of the mice caused by ACV-resistant HSV-1 infection was observed every day, and the number of survived animals was counted.

[1] = dissolved in 20% Cremophor EL/20% PEG 400/60% H2O (asterisk)

In the case of Nc1nc(-c2ccc(NC(=O)CN(C(=O)c3ccc(F)cc3)c3ccc4ncsc4c3)cc2)cs1 [Comparative compound A, reference compound], the “Inhibition ratio (%) (disease inhibitory rate vs placebo from AUC of mean disease score)” value (“Inhibition ratio (%)” for short) (HSV-1 strain WT-51; methyl cellulose suspension) is reported as 38%.
COc1ccc(N(CC(=O)Nc2ccc(-c3csc(N)n3)cc2)C(=O)C2CCS(=O)(=O)CC2)cc1 [Comparative compound B, reference compound] was tested, and the “Inhibition ratio (%)” value (HSV-1 strain WT-51; methyl cellulose suspension) was 2%.
In the case of COc1ccc(N(CC(=O)Nc2ccc(-c3csc(N)n3)cc2)C(=O)C2CCC(O)CC2)cc1 (centres unmarked) [Comparative compound C, reference compound], the “Inhibition ratio (%)” value (HSV-1 strain WT-51; methyl cellulose suspension) is reported as 44%.
Nc1nc(-c2ccc(NC(=O)CN(C(=O)C3CCS(=O)(=O)CC3)c3ccc4c(c3)CCC4)cc2)cs1 [Comparative compound D, reference compound] was tested, and the “Inhibition ratio (%)” value (HSV-1 strain WT-51; methyl cellulose suspension) was 43%.
In the case of Cc1cccc(C)c1N(CC(=O)Nc1ccc(-c2cocn2)cc1)C(=O)C1CCS(=O)(=O)CC1 [Preparation 1, N-(2,6-dimethylphenyl)-N-(2-{[4-(1,3-oxazol-4-yl)phenyl]amino}-2-oxoethyl)tetrahydro-2H-thiopyran-4-carboxamide 1,1-dioxide], the “Inhibition ratio (%)” value (HSV-1 strain WT-51; [1]) is reported as “* 93%”.
For Cc1cccc(N(CC(=O)Nc2ccc(-c3cocn3)cc2)C(=O)C2CCS(=O)(=O)CC2)c1 [Preparation 3, N-(3-methylphenyl)-N-(2-{[4-(1,3-oxazol-4-yl)phenyl]amino}-2-oxoethyl)tetrahydro-2H-thiopyran-4-carboxamide 1,1-dioxide], the “Inhibition ratio (%)” value (HSV-1 strain WT-51; methyl cellulose suspension) was 70%.
Cc1ccccc1N(CC(=O)Nc1ccc(-c2cocn2)cc1)C(=O)C1CCS(=O)(=O)CC1 [Preparation 4, N-(2-methylphenyl)-N-(2-{[4-(1,3-oxazol-4-yl)phenyl]amino}-2-oxoethyl)tetrahydro-2H-thiopyran-4-carboxamide 1,1-dioxide] was tested, and the “Inhibition ratio (%)” value (HSV-1 strain WT-51; methyl cellulose suspension) was 77%.
In the case of Cc1ccc(N(CC(=O)Nc2ccc(-c3cocn3)cc2)C(=O)C2CCS(=O)(=O)CC2)c(C)c1 [Preparation 6, N-(2,4-dimethylphenyl)-N-(2-{[4-(1,3-oxazol-4-yl)phenyl]amino}-2-oxoethyl)tetrahydro-2H-thiopyran-4-carboxamide 1,1-dioxide], the “Inhibition ratio (%)” value (HSV-1 strain WT-51; methyl cellulose suspension) is reported as 92%.
Cc1ccc(N(CC(=O)Nc2ccc(-c3cocn3)cc2)C(=O)C2CCS(=O)(=O)CC2)cc1C [Preparation 8, N-(3,4-dimethylphenyl)-N-(2-{[4-(1,3-oxazol-4-yl)phenyl]amino}-2-oxoethyl)tetrahydro-2H-thiopyran-4-carboxamide 1,1-dioxide] was tested, and the “Inhibition ratio (%)” value (HSV-1 strain WT-51; methyl cellulose suspension) was 91%.
In the case of O=C(CN(C(=O)C1CCS(=O)(=O)CC1)c1ccc2c(c1)CCC2)Nc1ccc(-c2cocn2)cc1 [Preparation 11, N-(2,3-dihydro-1H-inden-5-yl)-N-(2-{[4-(1,3-oxazol-4-yl)phenyl]amino}-2-oxoethyl)tetrahydro-2H-thiopyran-4-carboxamide 1,1-dioxide], the “Inhibition ratio (%)” value (HSV-1 strain WT-51; methyl cellulose suspension) is reported as 92%.
Cc1cc(N(CC(=O)Nc2ccc(-c3cocn3)cc2)C(=O)C2CCS(=O)(=O)CC2)ccc1Cl [Preparation 13, N-(4-chloro-3-methylphenyl)-N-(2-{[4-(1,3-oxazol-4-yl)phenyl]amino}-2-oxoethyl)tetrahydro-2H-thiopyran-4-carboxamide 1,1-dioxide] was tested, and the “Inhibition ratio (%)” value (HSV-1 strain WT-51; methyl cellulose suspension) was 89%.
Cc1ccc(N(CC(=O)Nc2ccc(-c3cocn3)cc2)C(=O)C2CCS(=O)(=O)CC2)cc1F [Preparation 14, N-(3-fluoro-4-methylphenyl)-N-(2-{[4-(1,3-oxazol-4-yl)phenyl]amino}-2-oxoethyl)tetrahydro-2H-thiopyran-4-carboxamide 1,1-dioxide] was tested, and the “Inhibition ratio (%)” value (HSV-1 strain WT-51; methyl cellulose suspension) was 98%.
In the case of Cc1ccc(N(CC(=O)Nc2ccc(-c3cocn3)cc2)C(=O)C2CCS(=O)(=O)CC2)c(C)c1F [Preparation 17, N-(3-fluoro-2,4-dimethylphenyl)-N-(2-{[4-(1,3-oxazol-4-yl)phenyl]amino}-2-oxoethyl)tetrahydro-2H-thiopyran-4-carboxamide 1,1-dioxide], the “Inhibition ratio (%)” value (HSV-1 strain WT-51; methyl cellulose suspension) is reported as 94%.
Cc1c(F)cc(N(CC(=O)Nc2ccc(-c3cocn3)cc2)C(=O)C2CCS(=O)(=O)CC2)cc1F [Preparation 19, N-(3,5-difluoro-4-methylphenyl)-N-(2-{[4-(1,3-oxazol-4-yl)phenyl]amino}-2-oxoethyl)tetrahydro-2H-thiopyran-4-carboxamide 1,1-dioxide] was tested, and the “Inhibition ratio (%)” value (HSV-1 strain WT-51; methyl cellulose suspension) was 71%.
In the case of Cc1ccc(N(CC(=O)Nc2ccc(-c3cocn3)cc2)C(=O)C2CCS(=O)(=O)CC2)c(F)c1 [Preparation 20, N-(2-fluoro-4-methylphenyl)-N-(2-{[4-(1,3-oxazol-4-yl)phenyl]amino}-2-oxoethyl)tetrahydro-2H-thiopyran-4-carboxamide 1,1-dioxide], the “Inhibition ratio (%)” value (HSV-1 strain WT-51; methyl cellulose suspension) is reported as 91%.
In the case of Cc1cccc(N(CC(=O)Nc2ccc(-c3ncon3)cc2)C(=O)C2CCS(=O)(=O)CC2)c1C [Preparation 24, N-(2,3-dimethylphenyl)-N-(2-{[4-(1,2,4-oxadiazol-3-yl)phenyl]amino}-2-oxoethyl)tetrahydro-2H-thiopyran-4-carboxamide 1,1-dioxide], the “Inhibition ratio (%)” value (HSV-1 strain WT-51; methyl cellulose suspension) is reported as 89%.
In the case of Cc1ccc(N(CC(=O)Nc2ccc(-c3ncon3)cc2)C(=O)C2CCS(=O)(=O)CC2)c(C)c1 [Preparation 25, N-(2,4-dimethylphenyl)-N-(2-{[4-(1,2,4-oxadiazol-3-yl)phenyl]amino}-2-oxoethyl)tetrahydro-2H-thiopyran-4-carboxamide 1,1-dioxide], the “Inhibition ratio (%)” value (HSV-1 strain WT-51; [1]) is reported as “* 70%”.
For Cc1cc(F)cc(C)c1N(CC(=O)Nc1ccc(-c2ncon2)cc1)C(=O)C1CCS(=O)(=O)CC1 [Preparation 31, N-(4-fluoro-2,6-dimethylphenyl)-N-(2-{[4-(1,2,4-oxadiazol-3-yl)phenyl]amino}-2-oxoethyl)tetrahydro-2H-thiopyran-4-carboxamide 1,1-dioxide], the “Inhibition ratio (%)” value (HSV-1 strain WT-51; [1]) was “* 86%”.
For O=C(CN(C(=O)C1CCS(=O)(=O)CC1)c1ccc2c(c1)CCC2)Nc1ccc(-c2ncon2)cc1 [Preparation 33, N-(2,3-dihydro-1H-inden-5-yl)-N-(2-{[4-(1,2,4-oxadiazol-3-yl)phenyl]amino}-2-oxoethyl)tetrahydro-2H-thiopyran-4-carboxamide 1,1-dioxide], the “Inhibition ratio (%)” value (HSV-1 strain WT-51; methyl cellulose suspension) was 79%.
In the case of CC(C)[C@H](N)C(=O)OCCOCn1cnc2c(=O)nc(N)[nH]c21 [VCV, valcyclovir, reference compound], the “death suppressing effect (in words)” value (ACV-resistant HSV-1; 17 days after infection) is reported as “clear death suppressing effect was not found”, the “The number of survived animals (n = 10)” value (ACV-resistant HSV-1; day 0 after infection) is reported as 10 and the “The number of survived animals (n = 10)” value (ACV-resistant HSV-1; day 1 after infection) is reported as 10. The “The number of survived animals (n = 10)” value (ACV-resistant HSV-1; day 2 after infection) was 10, the “The number of survived animals (n = 10)” value (ACV-resistant HSV-1; day 4 after infection) was 10 and the “The number of survived animals (n = 10)” value (ACV-resistant HSV-1; day 5 after infection) was 10. For the same compound, the “The number of survived animals (n = 10)” value (ACV-resistant HSV-1; day 6 after infection) was 10, the “The number of survived animals (n = 10)” value (ACV-resistant HSV-1; day 7 after infection) was 9 and the “The number of survived animals (n = 10)” value (ACV-resistant HSV-1; day 8 after infection) was 8. For the same compound, the “The number of survived animals (n = 10)” value (ACV-resistant HSV-1; day 9 after infection) was 4, the “The number of survived animals (n = 10)” value (ACV-resistant HSV-1; day 10 after infection) was 2 and the “The number of survived animals (n = 10)” value (ACV-resistant HSV-1; day 11 after infection) was 2. For the same compound, the “The number of survived animals (n = 10)” value (ACV-resistant HSV-1; day 12 after infection) was 2, the “The number of survived animals (n = 10)” value (ACV-resistant HSV-1; day 14 after infection) was 2 and the “The number of survived animals (n = 10)” value (ACV-resistant HSV-1; day 16 after infection) was 2. The “The number of survived animals (n = 10)” value (ACV-resistant HSV-1; day 17 after infection) was 2.
